# According to publication PMC5011342, “A high throughput drug screening assay to identify compounds that promote oligodendrocyte differentiation using acutely dissociated and purified oligodendrocyte precursor cells” (BMC Research Notes, 2016):
# Read-outs that look alike come from different tables or passages of the source.
# How the values were obtained:
# [1] = system: expanded OPCs; assay: cells; details: for 0.1 µM (% DMSO) / 1 µM (% DMSO) / 10 µM (% DMSO): alamarBlue viability of expanded OPCs, relative to DMSO control; for 0.1 µM (% DMSO): compound at 0.1 µM; for 1 µM (% DMSO): compound at 1 µM; for 10 µM (% DMSO): compound at 10 µM; for viability at 0.1 µM / viability at 1 µM / viability at 10 µM: Rattus norvegicus, 72 h
# Outline: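 Expanded OPCs seeded at 10,000 cells/well in differentiation media, then exposed to NCC library compounds at 10, 1 and 0.1 µM (quadruplicate, 0.1% DMSO) for three days. Viability read as alamarBlue fluorescence (560/590 nm) after 4 h at 37 °C; tunicamycin 5 ng/ml served as toxicity control.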
# [2] = system: acutely dissociated and purified rat OPCs; assay: Acute OL differentiation assay (MBP expression/cell, immunofluorescent image quantification); assay type: cell-based; details: for activation at 2 µM / activation at 10 µM / activation at 0.08 µM / activation at 0.4 µM: sheet "All OLga data"
# Outline: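 Oligodendrocyte precursor cells were enriched from P6-P7 Sprague–Dawley rat brains by immunopanning (RAN-2 and GalC depletion, O4 selection), plated at 5000 cells/well in serum-free, mitogen-free differentiation media on PDL/laminin 96-well view plates, centrifuged at 200×g, and pre-incubated 1–2 h before test compounds were added in quadruplicate. On DIV4, cells were fixed, stained for MBP and DAPI, imaged automatically, and MBP expression per cell was quantified.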
# [3] = Rattus norvegicus, test compound at 2 uM, NCC library screen, relative to quetiapine, read-out: 2 uM (% Quet)
# [4] = Rattus norvegicus, test compound at 10 uM, NCC library screen, relative to quetiapine, read-out: 10 uM (% Quet)
# [5] = read-out: 0.1 µM (% DMSO), alamarBlue viability, NCC library compound at 0.1 µM, sheet "All Tox data"
# [6] = read-out: 1 µM (% DMSO), alamarBlue viability, NCC library compound at 1 µM, sheet "All Tox data"
# [7] = read-out: 10 µM (% DMSO), alamarBlue viability, NCC library compound at 10 µM, sheet "All Tox data"
# [8] = Rattus norvegicus, test compound at 0.4 uM, NCC library screen, relative to quetiapine, read-out: 0.4 uM (% Quet)
# [9] = read-out: 0.1 µM (% DMSO), alamarBlue viability of expanded OPCs, compound at 0.1 µM, sheet All Tox data
# [10] = read-out: 1 µM (% DMSO), alamarBlue viability of expanded OPCs, compound at 1 µM, sheet All Tox data
# [11] = read-out: 10 µM (% DMSO), alamarBlue viability of expanded OPCs, compound at 10 µM, sheet All Tox data
# [12] = Rattus norvegicus, 2 uM test compound, relative to quetiapine, read-out: OL differentiation, 2 uM (% Quet)
# [13] = Rattus norvegicus, 10 uM test compound, relative to quetiapine, read-out: OL differentiation, 10 uM (% Quet)
# [14] = Rattus norvegicus, test compound at 2 uM, MBP expression relative to quetiapine, NCC library screen, read-out: 2 uM (% Quet)
# [15] = Rattus norvegicus, test compound at 10 uM, MBP expression relative to quetiapine, NCC library screen, read-out: 10 uM (% Quet)
# [16] = Rattus norvegicus, 0.4 uM test compound, relative to quetiapine, read-out: OL differentiation, 0.4 uM (% Quet)
SMILES,"activation at 2 µM [2, 3] [%]","activation at 10 µM [2, 4] [%]","viability at 0.1 µM [1, 5] [%]","viability at 1 µM [1, 6] [%]","viability at 10 µM [1, 7] [%]","viability at 0.1 µM [1, 9] [%]","viability at 1 µM [1, 10] [%]","viability at 10 µM [1, 11] [%]","activation at 2 µM [2, 12] [%]",other results
Cn1c(=O)c2[nH]cnc2n(C)c1=O [Theophylline],-12,6.9,,,,,,,,0.1 µM (% DMSO) [1]: 91.7 % DMSO; 1 µM (% DMSO) [1]: 95.8 % DMSO; 10 µM (% DMSO) [1]: 88.9 % DMSO
c1ccc2[nH]c(-c3cscn3)nc2c1 [Thiabendazole],14.9,36.7,98,97.1,109,,,,,
CSc1ccc2c(c1)N(CCC1CCCCN1C)c1ccccc1S2 (stereo not shown) [Thioridazine],,,53.8,24.4,9.4,,,,,"activation at 0.08 µM ([2]; Rattus norvegicus, test compound at 0.08 uM, NCC library screen, relative to quetiapine, read-out: 0.08 uM (% Quet)): -4.7%; activation at 0.4 µM [2, 8]: -158%"
CN1CCN(CC/C=C2/c3ccccc3Sc3ccc(S(=O)(=O)N(C)C)cc32)CC1 [Thiothixene],,,,,,,,,,"0.1 µM (% DMSO) [1]: 81.2 % DMSO; 1 µM (% DMSO) [1]: 49.9 % DMSO; 10 µM (% DMSO) [1]: 16.9 % DMSO; activation at 0.08 µM ([2]; Rattus norvegicus, test compound at 0.08 uM, MBP expression relative to quetiapine, NCC library screen, read-out: 0.08 uM (% Quet)): 45.9%; activation at 0.4 µM ([2]; Rattus norvegicus, test compound at 0.4 uM, MBP expression relative to quetiapine, NCC library screen, read-out: 0.4 uM (% Quet)): 24%"
Cc1ccsc1C(=CCCN1CCC[C@@H](C(=O)O)C1)c1sccc1C [Tiagabine],,,,,,99.9,89.2,92.7,-1.8,"activation at 10 µM [2, 13]: 8.7%"
C#C[C@]1(O)CC[C@H]2[C@@H]3[C@H](C)CC4=C(CCC(=O)C4)[C@H]3CC[C@@]21C [Tibolone],6.5,-6.7,84.8,85.4,77.4,,,,,
CC(C)(C)NC[C@H](O)COc1nsnc1N1CCOCC1 [Timolol],-5.6,-24.3,99.5,89.9,92.8,,,,,
CCS(=O)(=O)CCn1c([N+](=O)[O-])cnc1C [Tinidazole],-10.8,10.4,91.7,95.3,97.1,,,,,
Clc1ccc2nsnc2c1NC1=NCCN1 [Tizanidine],,,,,,,,,,"0.1 µM (% DMSO) [1]: 92.8 % DMSO; 1 µM (% DMSO) [1]: 97.3 % DMSO; 10 µM (% DMSO) [1]: 87.9 % DMSO; activation at 2 µM [2, 14]: 13.7%; activation at 10 µM [2, 15]: -4.2%"
Cc1cccc(C)c1NC(=O)C(C)N (stereo not shown) [Tocainide],,,,,,94.9,96.2,98,1.2,"activation at 10 µM [2, 13]: -23.2%"
Cc1ccc(S(=O)(=O)NC(=O)NN2CCCCCC2)cc1 [Tolazamide],-14.2,-2,,,,,,,,0.1 µM (% DMSO) [1]: 100.3 % DMSO; 1 µM (% DMSO) [1]: 95.8 % DMSO; 10 µM (% DMSO) [1]: 99.9 % DMSO
c1ccc(CC2=NCCN2)cc1 [Tolazoline],,,,,,,,,,"0.1 µM (% DMSO) [1]: 90.4 % DMSO; 1 µM (% DMSO) [1]: 94.2 % DMSO; 10 µM (% DMSO) [1]: 86.6 % DMSO; activation at 2 µM [2, 14]: -2.4%; activation at 10 µM [2, 15]: -19.3%"
CCCCNC(=O)NS(=O)(=O)c1ccc(C)cc1 [Tolbutamide],-1.3,20.2,105,107,117,,,,,
Cc1ccc(O)c([C@H](CCN(C(C)C)C(C)C)c2ccccc2)c1 [Tolterodine],,,,,,88.4,87.8,46.5,-0.9,"activation at 0.4 µM [2, 16]: -6.8%"
CC1(C)O[C@@H]2[C@@H](CO[C@@]3(COS(N)(=O)=O)OC(C)(C)O[C@@H]23)O1 [Topiramate],,,,,,94,93.5,86.5,8.5,"activation at 10 µM [2, 13]: 0.05%"
CC[C@@]1(O)C(=O)OCc2c1cc1n(c2=O)Cc2cc3c(CN(C)C)c(O)ccc3nc2-1 [Topotecan],,,,,,72,49.7,12.3,,"activation at 0.08 µM ([2]; Rattus norvegicus, 0.08 uM test compound, relative to quetiapine, read-out: OL differentiation, 0.08 uM (% Quet)): -46.4%; activation at 0.4 µM [2, 16]: -124%"
"CN(C)CCOc1ccc(/C(=C(/CCCl)c2ccccc2)c2ccccc2)cc1 [Toremifene, reference compound]",-169,,174,57.8,9.9,,,,,"activation at 0.4 µM [2, 8]: 74.9%; EC50 ([2]; Rattus norvegicus, average EC50 for induction of OL differentiation from independent biological replicates, eight concentrations): 100 nM; hit in OL differentiation assay, MRF-TMC ([2]; ● = confirmed hit in this paper's assay): ●"
Cc1cccc(Nc2ccncc2S(=O)(=O)NC(=O)NC(C)C)c1 [Torsemide],,,,,,90.5,88.3,93.4,31.2,"activation at 10 µM [2, 13]: -6.1%"
NC1CCN(c2nc3c(cc2F)c(=O)c(C(=O)O)cn3-c2ccc(F)cc2F)C1 (stereo not shown) [Tosufloxacin],,,,,,95.4,104,92.2,-17.9,"activation at 10 µM [2, 13]: -6.5%"
COc1cccc(C2(O)CCCCC2CN(C)C)c1 (stereo not shown) [Tramadol],-1.7,-9.7,100,107,96.7,,,,,
COc1ccc(/C=C/C(=O)Nc2ccccc2C(=O)O)cc1OC [Tranilast],,,,,,90.5,90,85.8,5.9,"activation at 10 µM [2, 13]: -18.5%"
O=c1n(CCCN2CCN(c3cccc(Cl)c3)CC2)nc2ccccn12 [Trazodone],,,,,,90.8,78.9,84.9,-7.5,"activation at 10 µM [2, 13]: 55%"
O=C(O[C@H]1[C@H](Oc2ccccc2COC(=O)C2(O)C=CCCC2=O)O[C@H](CO)[C@@H](O)[C@@H]1O)c1ccccc1 (stereo partly shown) [Tremulacin],-176,,86.6,85.4,20.7,,,,,"activation at 0.4 µM [2, 8]: -46.7%"
CC1(C)O[C@@H]2C[C@H]3[C@@H]4CCC5=CC(=O)C=C[C@]5(C)[C@@]4(F)[C@@H](O)C[C@]3(C)[C@]2(C(=O)CO)O1 [Triamcinolone Acetonide],-1.9,1.9,133,127,127,,,,,
Nc1nc(N)c2nc(-c3ccccc3)c(N)nc2n1 [Triamterene],0.9,-18.8,94.9,96.5,95.3,,,,,
CSc1nc2cc(Cl)c(Oc3cccc(Cl)c3Cl)cc2[nH]1 [Triclabendazole],,,,,,96.9,131,11.1,-46.6,"activation at 0.4 µM [2, 16]: -13.1%"
Oc1cc(Cl)ccc1Oc1ccc(Cl)cc1Cl [Triclosan],,,,,,,,,,"0.1 µM (% DMSO) [1]: 100.2 % DMSO; 1 µM (% DMSO) [1]: 117.5 % DMSO; 10 µM (% DMSO) [1]: 9.2 % DMSO; activation at 0.4 µM [2, 8]: 8.6%"
OC(CCN1CCCCC1)(c1ccccc1)C1CCCCC1 (stereo not shown) [Trihexyphenidyl],,,,,,,,,,"0.1 µM (% DMSO) [1]: 90.6 % DMSO; 1 µM (% DMSO) [1]: 84.6 % DMSO; 10 µM (% DMSO) [1]: 67.7 % DMSO; activation at 2 µM [2, 14]: -19.1%; activation at 10 µM [2, 15]: -45.6%"
N[C@@H](Cc1cc(I)c(Oc2ccc(O)c(I)c2)c(I)c1)C(=O)O [Triiodothyronine],-36.3,-37.8,,,,,,,,0.1 µM (% DMSO) [1]: 237.5 % DMSO; 1 µM (% DMSO) [1]: 217.6 % DMSO; 10 µM (% DMSO) [1]: 207.1 % DMSO
CCC(COC(=O)c1cc(OC)c(OC)c(OC)c1)(c1ccccc1)N(C)C (stereo not shown) [Trimebutine],,,,,,113,135,147,31.4,"activation at 10 µM [2, 13]: -25.8%"
